Patent US8809631B2, “Screening method for selecting plants that show reduced wound-induced surface discolouration and plant and plant parts thus obtained” (Rijk Zwaan Zaadteelt en Zaadhandel B.V., priority 2007, dated 2014)
Entries after “also recorded” stand apart in the source; their conditions may differ.

Tests used:
[1] = tested on: lettuce leaf discs; experiment: leaf disc pinking assay (discs between wetted filter papers, 5° C., 7 days); type: cell-based; details: for effect on pink discolouration (formation of the pink dye): applied during the reaction; for effect on pink discolouration (formation of the pink dye) / concentration at which the pink discolouration was completely inhibited: lettuce leaf discs; for effect on output signal of the screen (brown or pink discolouration of the wound surface): FIG. 1 legend; for concentration at which the pink discolouration was completely inhibited: applied during the assay, 5° C., 7 days
Method: One embodiment of this invention is based on the surprising finding that when discs from leaves, in particular lettuce leaves, are taken and incubated between wetted filter papers at 5° C., after approximately 4 days the formation of a pink dye at the edges of the leaf discs becomes apparent. Suitable filter paper is filter paper type 1450 CV, Ref no. 10 313 281 from Schleier & Schuell, Microscience GmbH, Dassel, Germany. Upon further incubation, the signal intensifies and after approximately one week the maximum intensity has been reached. The formation of the pink dye occurs specifically at wound surfaces.
A phenotypic assay was developed in which leaf discolouration of lettuce induced by wounding can readily be assessed. This approach allows young plant screening for discolouration. Leaf discs of 5 mm diameter were taken from young or mature plants and placed between wetted filter papers in a tray. The system was incubated at 5° C. for 7 days. During the incubation a pink dye developed at the wound site of the leaf disc which became clearly visible as a printed circle on the filter paper (FIG. 2).

[2] = tested on: field-grown lettuce plant; experiment: L-cysteine treatment of leaf discs from field-grown lettuce showing pinking; details: 1 mM L-cysteine, approximately 30 minutes, room temperature
Method: This is typically observed when plants have been stressed, for example by conditions of severe water logging. The leaf was used to prepare leaf discs which were incubated immediately by 1 mM L-cysteine.

[3] = treatment of formed dye with reducing agent after the wound response was completed; set-up: species or system lettuce; details: added after the wound response was completed
Method: As L-cysteine is known to react with o-quinones, which are PPO products, by converting them back into colourless diphenols, the effects of L-cysteine on the pink dye coming from lettuce leaf discs was determined. In parallel the effect of L-cysteine was determined on the melanin formation upon incubation with L-DOPA. Leaf discs were taken and incubated according to the procedures described above. After the wound response was completed, a concentration series of L-cysteine was added to the leaf disc and the change in colour was monitored.

[4] = tested on: lettuce outer leaf midrib tissue discs; experiment: midrib disc browning assay (wetted filter paper, 16° C.); type: cell-based; details: 10 mM L-cysteine, approximately 72 hours
Method: Lettuce plants were grown to maturity and parts of outer leaves were taken by cutting discs from the rib tissue. The discs were incubated on wetted filter paper at 16° C. After approximately 72 hours, the wound surface had turned brown.

[5] = tested on: lettuce PPO; experiment: L-DOPA leaf disc assay (conversion of L-DOPA into melanin); type: cell-based
Method: In addition to assays which address wound-induced discolouration in a broad sense, the method according to this invention also allows to screen in a more specific manner for mutants which have a reduced PPO activity. A phenotypic assay which is indicative for PPO activity was developed by using leaf discs which were incubated in the presence of 1.5 mM L-DOPA. As a black discolouration became apparent it can be concluded that L-DOPA can readily be converted by the polyphenol oxidising system at the wound surface of lettuce leaves into a black pigment called melanine. L-DOPA is converted by PPO into the reactive L-DOPA-quinone which is converted non-enzymatically via dopachrome and indol quinone into the black melanin.

Structure (SMILES) | effect on pink discolouration (formation of the pink dye) [1] | effect on the pink dye already formed by lettuce leaf discs [3] | effect on output signal of the screen (brown or pink discolouration of the wound surface) [1] | concentration at which the pink discolouration was completely inhibited [1] | also measured
CC(C)C[C@H](N)C(=O)O [L-leucine] | did not show any effect |  |  |  | 
N[C@@H](CS)C(=O)O [L-cysteine] | strongly suppressed the formation of the pink dye | converted into a colourless compound; also recorded: converting the pink dye back into a colourless compound | completely inhibited | ≥ 0.001% | effect on pink discolouration of field-grown lettuce leaf [2]: the pink discolouration is also eliminated; also recorded: the pink discolouration disappeared; effect on black melanin already formed in the L-DOPA assay [3]: not affected; effect on browning response of wound surface [4]: completely be inhibited; also recorded: the browning response was inhibited; effect on black discolouration (melanin formation from L-DOPA) ([5]; applied simultaneously with L-DOPA (1 mM L-cysteine elsewhere in the source)): completely inhibited; also recorded: can be inhibited; concentration at which L-DOPA discolouration was completely inhibited ([5]; applied simultaneously with L-DOPA, lettuce leaf discs): ≥ 1 mM
O=C1O[C@H]([C@@H](O)CO)C(O)=C1O [ascorbic acid] |  | convert the pink dye into a colourless compound |  |  | 
O=CC=Cc1ccccc1 [cinnamaldehyde] | formation of the pink dye was inhibited |  | completely inhibited | ≥ 0.01% | 
N[C@@H](CCC(=O)N[C@@H](CS)C(=O)NCC(=O)O)C(=O)O [glutathion] |  | convert the pink dye into a colourless compound |  |  | 
C[C@H](N)C(=O)O [L-alanine] | did not show any effect |  |  |  | 
